For 114 compounds, melting point results are on record in a melting point compilation (Tetko et al.).

For `Clc1ccc(C=NNc2ncnc3c2cnn3-c2ccccc2)cc1`, the melting point fell in the range of 280 to 282 °C. Compound `Nc1ccc(S(=O)(=O)Nc2ccc(Cl)nn2)cc1` returned a melting point of 187 °C. In turn, `CCCCCCCCC(=O)OC(=O)CCCCCCCC` yielded a melting point of 14.8 °C.

Take `Brc1ccc(-c2csnn2)cc1`: the melting point fell in the range of 154 to 156 °C.

`O=C(OCCc1cc([N+](=O)[O-])c(CCOC(=O)c2ccccc2)cc1[N+](=O)[O-])c1ccccc1` had a melting point of 157 to 158 °C. Then `O=c1c(Cc2c(O)oc3ccccc3c2=O)c(O)oc2ccccc12`, with 290 °C; and `O=C(O)CNC(=O)c1ccc([N+](=O)[O-])cc1`, with 130 °C; and `CCC(=O)c1c(O)cc(O)cc1O`, with 176 °C. In turn, `BrCc1ccc(-c2cccs2)cc1` had a melting point of 83 to 84 °C. Turning to `COc1cc(C(=O)O)cc(Cl)c1O`, the melting point was 245 °C. `Cc1ccc2c(c1)C(c1ccccc1)C(c1ccccc1)N2` (centres undefined): the melting point was found to be 155 °C. `CC1CCC(C)CC1` (centres undefined): the melting point was -36.9 °C. The figure for `c1ccc2sc(SSc3nc4ccccc4s3)nc2c1` is 180 °C. For `O=C1c2ccccc2C(=O)C1(Cl)c1ccccc1`, the melting point was 115 to 116 °C. Take `Cc1cc(Cl)cc([N+](=O)[O-])c1`: the melting point stood at 61 °C. In turn, `Cc1ccc2sc(C(=O)Cl)cc2c1` showed a melting point of 58 to 60 °C. Regarding `CCCCCC1=CCCC1`, the melting point is -83 °C. Turning to `CC(C)N(C(=O)Cl)C(C)C`, the melting point lay in the range of 55 to 60 °C. The compound `CN[C@H](CC(=O)O)C(=O)O` displayed a melting point of 187 to 192 °C.

Consider `O=C1C=C(NCc2cccc(Cl)c2)C(=O)c2ccccc21`, for which the melting point was found to be 191 °C. `CCC(=O)OC1CCC2C3CCC4=CC(=O)CCC4(C)C3CCC12C` (centres undefined) returned a melting point of 120 °C. Compound `Cc1cc(N)c2ncccc2c1` registered a melting point of 73 °C.

The compound `Cc1ccc(-c2nc(C(=O)O)cs2)cc1` registered a melting point of 170 °C. As for `CC(=O)n1c(C)c(C)c2ccccc21`, the melting point is 74 °C.

`CC(=O)OC1CCC2C3CC=C4CC5(CCC4(C)C3CCC12C)OCCO5` (centres undefined): the melting point stood at 196 °C. Compound `C=C(C)C1CCC(C)CC1O` (centres undefined) gave a melting point of 78 °C. As for `CCOCC1C(=O)C2(C)CCC1C2(C)C` (centres undefined), the melting point is 114 °C. The compound `C#CC(C1COC(C)(C)O1)N(O)Cc1ccccc1` (centres undefined) showed a melting point of 115 °C. With `COc1ccc2c(c1OC)CN(C)CCc1cc3c(cc1C(=O)C2)OCO3`, the melting point was 160 °C. As for `CCOC(=O)OCC`, the melting point is -43 °C. As to `O=Cc1cc(Br)cc2c1OCC2`, the melting point lay within 94 to 95 °C.

With `O=C(O)CCCCCCCc1ccccc1`, the melting point worked out at 28 °C.

`CC1(C)C2CCC1(CS(=O)(=O)Cl)C(=O)C2` (centres undefined) returned a melting point of 66 °C. In the case of `CC(C)C[C@H](N)[C@@H](O)CC(=O)O`, the melting point was 209 °C. Take `CSc1ccc(Oc2cccc(F)c2C#N)cc1`: the melting point was in the range of 68 to 71 °C. As to `CCSCCO`, the melting point is -100 °C. The figure for `C1COCO1` is -26 °C; for `CCCC(C)(COC(N)=O)COC(N)=O` it is 104 °C.

`NC(=S)Cc1ccc(-c2csnn2)cc1` yielded a melting point of 169 to 171 °C. Then `Nc1c(F)cc(F)cc1Cl`, with 30 °C; and `Fc1ccc(-c2ccc(F)cc2)cc1`, with 94.5 °C; and `CCCCC(CC)CN` (centres undefined), with -76 °C. For `Nc1ncncn1`, the melting point is 219 to 224 °C. `CC(CO)NC(=O)OC(C)(C)C` (centres undefined): the melting point stood at 60 °C. As to `NC(=S)N1CCCCC1`, the melting point fell in the range of 127 to 129 °C. Compound `Cc1cc2ccccc2n1C` returned a melting point of 56.5 °C. For `NC(=S)NN=C1C(=O)Nc2ccccc21`, the melting point came out at 232 °C. Take `O=C(Cl)c1cccnc1Oc1ccc(Cl)cc1`: the melting point was in the range of 79 to 80 °C. In the case of `OCc1csc(-c2cccnc2)n1`, the melting point was 120 to 121 °C.

`CC12CCC(C(C(O)c3ccccc3)OC1=O)C2(C)C` (centres undefined) had a melting point of 156 °C. Regarding `COc1ccc(C#N)cc1Br`, the melting point came out at 122 °C. As for `O=C(Cl)CCCCl`, the melting point is -47 °C. The figure for `C1=CCC(c2ccncc2)CC1` (centres undefined) is 22.1 °C; for `CCOC(=O)C(C#N)=C(N)c1cc2cc(Br)ccc2oc1=O` it is 270 to 272 °C; for `c1ccc2cc3cc4ccccc4cc3cc2c1` it is 357 °C.

Compound `CSc1nc(=O)n2ccc(C)cc2n1` had a melting point of 170 to 173 °C.

As for `O=C(c1c[nH]c2ccccc12)C(F)(F)F`, the melting point lay within 211 to 214 °C. For the compound `CC12CCC(c3c(Br)cc(=O)oc31)C2(C)C` (centres undefined), the melting point came out at 105 °C. The compound `O=C1CCCN1C1CCCCC1` registered a melting point of 13 °C.

With `COc1ccc(-c2csc(/C(C#N)=N\Nc3ccncc3)n2)cc1`, the melting point was 255 °C.

The compound `Cc1c(C)c2c(c3c1C(=O)C3)CC2=O` returned a melting point of 207 °C. `CCOC(=O)c1ccc(-n2c(C)ccc2C)cc1` yielded a melting point of 88 to 90 °C.

In turn, `CC/C(=C(/CC)c1ccc(O)cc1)c1ccc(O)cc1` yielded a melting point of 172 °C.

`Nc1c(C(F)(F)F)cc(Cl)nc1Cl` had a melting point of 50 to 51 °C. Regarding `CN(C)CCCN1c2ccccc2CCc2ccc(Cl)cc21`, the melting point worked out at 190 °C.

`Clc1cc(Cl)c2c(oc3ccc(Cl)c(Cl)c32)c1Cl` returned a melting point of 210 °C. `Cc1nn(-c2ccccc2)nc1C(=O)NNS(=O)(=O)c1ccccc1` came in with a melting point of 217 to 219 °C. Then `c1ccc(Sc2ccccc2)cc1`, with -40 °C; and `Cc1cc(S(=O)(=O)Cl)ccc1Br`, with 59 °C; and `NC(=O)C1(N2CCCCC2)CCNCC1`, with 129 to 132 °C.

Turning to `Oc1ccc(Br)c2cccnc12`, the melting point is 124 °C. `C1=NN(c2ccccc2)CC1` displayed a melting point of 52 °C. `OCC1CCCN2CCCCC12` (centres undefined) yielded a melting point of 70 °C. In turn, `O=C(O)c1ccc(-c2ccc(Cl)cc2)o1` returned a melting point of 198 to 201 °C. The figure for `O=C1C=CC(=O)C(c2ccccc2)=C1` is 114 °C; for `Cc1cccc(C)c1NC(=O)CN(CC(=O)O)CC(=O)O` it is 213 to 216 °C; for `C=C[Si]12OCCN(CCO1)CCO2` it is 163 to 165 °C.

Consider `O=C(O)Cc1ccccc1F`, for which the melting point was 63 °C.

Turning to `Oc1cc(C(F)(F)F)nc2ccc(C(F)(F)F)cc12`, the melting point lay within 274 to 277 °C. On to `Cc1nc(/C(C#N)=C\c2ccc(Cl)cc2Cl)sc1/N=N/c1ccc(F)cc1`, for which the melting point is 138 to 140 °C.

On to `CCOc1cccc(F)c1`, for which the melting point was -27.5 °C. Compound `CC(=O)c1cc(Br)c(O)c(Br)c1` showed a melting point of 174 to 183 °C. With `CCCC(=O)Oc1c[nH]c2cc(Cl)ccc12`, the melting point was in the range of 98 to 102 °C.

`Cc1ccc(C(=O)c2ccccc2)cc1` registered a melting point of 59.5 °C. Take `Ic1cccc(Cn2cncn2)c1`: the melting point is 53 to 55 °C. Compound `O=C1NC(=O)C(=Cc2ccc(-c3ccccc3Br)o2)C(=O)N1` registered a melting point of 255 °C. The figure for `Oc1ccc(C2=Cc3ccccc3C(c3ccccc3)O2)cc1` (centres undefined) is 121 °C; for `NNC(=O)c1cc(OCC(F)(F)F)ccc1OCC(F)(F)F` it is 86 to 88 °C; for `Cc1cc(O)c(C(C)C)cc1C1(c2cc(C(C)C)c(O)cc2C)OS(=O)(=O)c2ccccc21` it is 221 °C.

With `O=S(=O)(Cl)c1cccc(Br)c1`, the melting point is 32 °C. Then `CC(=O)C1CCC2C3CCC4CC(O)CCC4(C)C3CCC12C` (centres undefined), with 194 °C; and `CC1(C)CC(CN2C(=O)C=CC2=O)C(C)(C)N1O` (centres undefined), with 148 to 150 °C. As for `O=C1OCCOC(=O)C2CCCCC2C(=O)OCCOC(=O)C2CCCCC12` (centres undefined), the melting point came to 210 °C. For the compound `Cc1cc(C(=O)Nc2ccccc2)no1`, the melting point fell in the range of 136 to 139 °C. Then `O=[N+]([O-])c1ccccc1N1CSc2nnc(-c3ccccc3)n2C1`, with > 300 °C. Take `CC(C)CC(C)Br` (centres undefined): the melting point is -94 °C. The compound `CCOC(=O)CNC(c1ccccc1)(c1ccccc1)c1ccccc1` gave a melting point of 114 °C. `Oc1ccc(Cl)cc1Br` gave a melting point of 33 °C.

In turn, `CCC(C(=O)NC(N)=O)c1ccccc1` (centres undefined) registered a melting point of 162 °C.

Take `COc1ccc(C(=O)Nc2ccc(-c3ccc4nn(-c5ccccc5)nc4c3)cc2)cc1`: the melting point fell in the range of 240 to 243 °C.

For `O=C1/C(=C/c2ccccc2O)SC(=S)N1CN1CCCCC1`, the melting point is 166 °C.

`N#CCc1cc(C(F)(F)F)ccc1Cl` displayed a melting point of 32 °C. `Cc1ccc(CCc2ccc(C)cc2)cc1` returned a melting point of 85 °C. `C#CCON1C(=O)c2ccccc2C1=O`: the melting point was in the range of 149 to 152 °C.

The compound `Cc1ccncc1C=NNc1ccc([N+](=O)[O-])cc1[N+](=O)[O-]` came in with a melting point of 156 °C. Compound `O=[N+]([O-])c1ccc(-c2nnc3n2NC(c2ccc([N+](=O)[O-])cc2)S3)cc1` (centres undefined) showed a melting point of 229 °C.

For the compound `N=C(N)NCCS(=O)(=O)O`, the melting point is 263 to 265 °C. As to `S=C(NN=Cc1c(-c2ccc(Cl)cc2)[nH]c2ccccc12)Nc1ccccc1`, the melting point was in the range of 211 to 212 °C. Then `c1ccc(CN2CCc3c([nH]c4ccccc34)C2)cc1`, with 165 to 170 °C. Compound `Clc1ccc(SCSc2ccc(Cl)cc2)cc1` displayed a melting point of 47 °C. On to `O=[N+]([O-])c1cc(Cl)ccc1Br`, for which the melting point was found to be 70 °C. Consider `Oc1cc(C(F)(F)F)nc2cc(Cl)ccc12`, for which the melting point stood at 280 °C. `O=Cc1ccc(I)c(O)c1` showed a melting point of 131 to 132 °C. On to `Cc1c(C=O)cnn1-c1ccccc1`, for which the melting point lay within 76 to 77 °C.
